≈ marks a conversion by molar mass, not a printed value. Calls of active or inactive are those of the source. No cut-off for these calls is given here.
Legend:
[1] = system: Pseudomonas aeruginosa; test: Antibacterial activity against Pseudomonas aeruginosa ATCC 27853 assessed as inhibition of bacterial growth incubated for 24 hrs; format: functional
[2] = system: Pseudomonas aeruginosa; test: Antibacterial activity against Pseudomonas aeruginosa clinical isolate assessed as inhibition of bacterial growth incubated for 24 hrs; format: functional
[3] = system: Staphylococcus aureus; test: Antibacterial activity against methicillin resistant Staphylococcus aureus clinical isolate assessed as inhibition of bacterial growth incubated under dark condition and measured upto 5 hrs; format: functional, organism-based
[4] = Hemolytic activity in human Red blood cells at 256 ug/ml measured after 1.5 hrs by absorbance based assay relative to control; format: toxicity, cell-based, Erythrocyte; conditions: red blood cells (erythrocytes), at 256 µg/mL, read-out: Activity
[5] = system: Pseudomonas aeruginosa; test: Antibiofilm activity in Pseudomonas aeruginosa assessed as biofilm eradication measured after 24 hrs by crystal violet staining based analysis; format: functional, organism-based; conditions: dose 1-2 µg/ml
[6] = system: Staphylococcus aureus; test: Antibacterial activity against methicillin resistant Staphylococcus aureus clinical isolate assessed as inhibition of bacterial growth incubated for 24 hrs; format: functional
[7] = system: Pseudomonas aeruginosa; test: Induction of intracellular ROS generation in Pseudomonas aeruginosa assessed as increase in fluorescence intensity at 2 ug/ml incubated for 6 hrs in presence of N-acetyl-L-cysteine by DCFH-DA dye based fluorescence analysis; format: functional, organism-based; conditions: dose 2.0 µg/ml
[8] = system: Erythrocyte; test: Hemolytic activity in human Red blood cells assessed as concentration required for 5% hemolysis measured after 1.5 hrs by absorbance based assay; format: toxicity, cell-based
[9] = system: Cell membrane; test: Induction of cell membrane depolarization in methicillin-resistant Staphylococcus aureus assessed as increase in fluorescence intensity at 1 ug/ml measured for 30 mins by DiSC35 dye based fluorescence analysis; format: cell membranes; conditions: dose 1.0 µg/ml
[10] = system: Staphylococcus aureus; test: Antibacterial activity against Staphylococcus aureus ATCC 29213 assessed as inhibition of bacterial growth incubated for 24 hrs; format: functional
[11] = system: Staphylococcus aureus; test: Antibacterial activity against Staphylococcus aureus ATCC 25923 assessed as inhibition of bacterial growth incubated for 24 hrs; format: functional
[12] = system: Staphylococcus epidermidis; test: Antibacterial activity against Staphylococcus epidermidis ATCC 12228 assessed as inhibition of bacterial growth incubated for 24 hrs; format: functional
[13] = system: Staphylococcus aureus; test: Antibacterial activity against methicillin resistant Staphylococcus aureus assessed as reduction in metabolic activity by measuring reduction in fluorescence intensity at 0.5 to 2 times MIC incubated for 6 hrs by alamar blue assay; format: functional, organism-based
[14] = system: Pseudomonas aeruginosa; test: Antibacterial activity against Pseudomonas aeruginosa assessed as reduction in metabolic activity by measuring reduction in fluorescence intensity at 0.5 to 2 times MIC incubated for 6 hrs by alamar blue assay; format: functional, organism-based
[15] = system: Acinetobacter baumannii; test: Antibacterial activity against Acinetobacter baumannii clinical isolate assessed as inhibition of bacterial growth incubated for 24 hrs; format: functional
[16] = system: Cell membrane; test: Induction of cell membrane depolarization in Pseudomonas aeruginosa assessed as increase in fluorescence intensity at 1 ug/ml measured for 30 mins by DiSC35 dye based fluorescence analysis; format: cell membranes; conditions: dose 1.0 µg/ml
[17] = system: Staphylococcus aureus; test: Antibiofilm activity in methicillin resistant Staphylococcus aureus assessed as biofilm eradication measured after 24 hrs by crystal violet staining based analysis; format: functional, organism-based; conditions: dose 1-2 µg/ml
[18] = system: Staphylococcus aureus; test: Antibacterial activity against Staphylococcus aureus clinical isolate assessed as inhibition of bacterial growth incubated for 24 hrs; format: functional
[19] = system: Staphylococcus aureus; test: Antibacterial activity against Staphylococcus aureus CMCC(B)26001 assessed as inhibition of bacterial growth incubated for 24 hrs; format: functional
[20] = system: Klebsiella pneumoniae; test: Antibacterial activity against Klebsiella pneumoniae clinical isolate assessed as inhibition of bacterial growth incubated for 24 hrs; format: functional
[21] = system: Staphylococcus aureus; test: Resistance development in methicillin resistant Staphylococcus aureus assessed as increase in MIC measured after 20 days; format: functional, organism-based; conditions: time 20.0 day
[22] = system: Staphylococcus aureus; test: Antibacterial activity against Staphylococcus aureus ATCC 12600 assessed as inhibition of bacterial growth incubated for 24 hrs; format: functional
[23] = system: Staphylococcus aureus; test: Antibacterial activity against Staphylococcus aureus CMCC(B)26003 assessed as inhibition of bacterial growth incubated for 24 hrs; format: functional
[24] = system: Enterococcus faecalis; test: Antibacterial activity against Enterococcus faecalis clinical isolate assessed as inhibition of bacterial growth incubated for 24 hrs; format: functional
[25] = system: Escherichia coli; test: Antibacterial activity against Escherichia coli clinical isolate assessed as inhibition of bacterial growth incubated for 24 hrs; format: functional
[26] = system: Cell membrane; test: Induction of cell membrane permeability in Pseudomonas aeruginosa assessed as increase in fluorescence intensity at 1 to 2 ug/ml incubated for 6 hrs by PI staining based fluorescence analysis; format: cell membranes; conditions: dose 1-2 µg/ml
[27] = system: Escherichia coli; test: Antibacterial activity against Escherichia coli ATCC 25922 assessed as inhibition of bacterial growth incubated for 24 hrs; format: functional
[28] = system: Enterococcus faecalis; test: Antibacterial activity against vancomycin-resistant Enterococcus faecalis clinical isolate p1-2007226001 assessed as inhibition of bacterial growth incubated for 24 hrs; format: functional
[29] = system: Enterococcus faecium; test: Antibacterial activity against Enterococcus faecium ATCC 19434 assessed as inhibition of bacterial growth incubated for 24 hrs; format: functional
[30] = system: Pseudomonas aeruginosa; test: Induction of intracellular ROS generation in Pseudomonas aeruginosa assessed as increase in fluorescence intensity at 2 ug/ml incubated for 6 hrs by DCFH-DA dye based fluorescence analysis; format: functional, organism-based; conditions: dose 2.0 µg/ml
[31] = system: Pseudomonas aeruginosa; test: Resistance development in Pseudomonas aeruginosa assessed as increase in MIC measured after 20 days; format: functional, organism-based; conditions: time 20.0 day
[32] = system: Staphylococcus aureus; test: Antibacterial activity against Staphylococcus aureus ATCC 6538 assessed as inhibition of bacterial growth incubated for 24 hrs; format: functional
[33] = system: Cell membrane; test: Induction of cell membrane damage in methicillin-resistant Staphylococcus aureus assessed as increase in nucleic acid leakage at 0 to 2 ug/ml incubated for 12 hrs by optical density based microplate reader analysis; format: cell membranes; conditions: dose 0-2 µg/ml
[34] = system: Enterococcus faecalis; test: Antibacterial activity against vancomycin-resistant Enterococcus faecalis clinical isolate p1-2007225053 assessed as inhibition of bacterial growth incubated for 24 hrs; format: functional
[35] = system: Streptococcus pyogenes; test: Antibacterial activity against Streptococcus pyogenes ATCC 19615 assessed as inhibition of bacterial growth incubated for 24 hrs; format: functional
[36] = system: Staphylococcus aureus; test: Antibacterial activity against methicillin-resistant Staphylococcus aureus ATCC 43300 assessed as inhibition of bacterial growth incubated for 24 hrs; format: functional
[37] = system: Streptococcus pneumoniae; test: Antibacterial activity against Streptococcus pneumoniae ATCC 6305 assessed as inhibition of bacterial growth incubated for 24 hrs; format: functional
[38] = system: Cell membrane; test: Induction of cell membrane permeability in methicillin-resistant Staphylococcus aureus assessed as increase in fluorescence intensity at 1 to 2 ug/ml incubated for 6 hrs by PI staining based fluorescence analysis; format: cell membranes; conditions: dose 1-2 µg/ml
[39] = system: Cell membrane; test: Induction of cell membrane damage in Pseudomonas aeruginosa assessed as increase in nucleic acid leakage at 0 to 2 ug/ml incubated for 12 hrs by optical density based microplate reader analysis; format: cell membranes; conditions: dose 0-2 µg/ml

| SMILES | MIC [1] [µg/mL] | MIC [2] [µg/mL] | hemolysis at 1.5 h, 256 ug/ml [4] [%] | MIC [6] [µg/mL] | HC5 [8] [µg/mL] | MIC [10] [µg/mL] | MIC [11] [µg/mL] | MIC [12] [µg/mL] | MIC [15] [µg/mL] | MIC [18] [µg/mL] | MIC [19] [µg/mL] | MIC [20] [µg/mL] | MIC [22] [µg/mL] | MIC [23] [µg/mL] | MIC [24] [µg/mL] | MIC [25] [µg/mL] | MIC [27] [µg/mL] | MIC [28] [µg/mL] | MIC [29] [µg/mL] | MIC [32] [µg/mL] | also measured |
| --- | --- | --- | --- | --- | --- | --- | --- | --- | --- | --- | --- | --- | --- | --- | --- | --- | --- | --- | --- | --- | --- |
| O=C(O)Cc1cc2c(cc1F)c(=O)c(C(=O)O)cn2C1CC1 | 2 (≈ 6.55 µM) | 0.5 (≈ 1.64 µM) | < 1 | 0.5 (≈ 1.64 µM) | > 10000 | 2 (≈ 6.55 µM) | 32 (≈ 105 µM) | 2 (≈ 6.55 µM) | 0.5 (≈ 1.64 µM) | 4 (≈ 13.1 µM) | 0.125 (≈ 0.409 µM) | 8 (≈ 26.2 µM) | 1 (≈ 3.28 µM) | 0.125 (≈ 0.409 µM) | 4 (≈ 13.1 µM) | 1 (≈ 3.28 µM) | 0.5 (≈ 1.64 µM) | 8 (≈ 26.2 µM) | 8 (≈ 26.2 µM) | 0.25 (≈ 0.819 µM) | Activity [3]: Dose-Dependent Effect; Activity [5]: Dose-Dependent Effect; Activity [7]: inactive; Activity [9]: Active; Activity [13]: Active; Activity [14]: Active; Activity [16]: Active; Activity [17]: Dose-Dependent Effect; Activity [21]: inactive; Activity [26]: Active; Activity [30]: Active; Activity [31]: inactive; Activity [33]: Active; MIC [34]: 2 µg/mL (≈ 6.55 µM); MIC [35]: 1 µg/mL (≈ 3.28 µM); MIC [36]: 2 µg/mL (≈ 6.55 µM); MIC [37]: 4 µg/mL (≈ 13.1 µM); Activity [38]: Active; Activity [39]: Active |
| CCn1cc(C(=O)O)c(=O)c2cc(F)c(CC#N)cc21 | 0.25 (≈ 0.912 µM) | 0.5 (≈ 1.82 µM) | < 1 | 1 (≈ 3.65 µM) | > 10000 | 4 (≈ 14.6 µM) | 0.25 (≈ 0.912 µM) | 256 (≈ 933 µM) | 0.5 (≈ 1.82 µM) | 1 (≈ 3.65 µM) | 4 (≈ 14.6 µM) | 2 (≈ 7.29 µM) | 64 (≈ 233 µM) | 4 (≈ 14.6 µM) | 32 (≈ 117 µM) | 4 (≈ 14.6 µM) | 2 (≈ 7.29 µM) | 128 (≈ 467 µM) | 256 (≈ 933 µM) | 2 (≈ 7.29 µM) | MIC [34]: 128 µg/mL (≈ 467 µM); MIC [35]: 1 µg/mL (≈ 3.65 µM); MIC [36]: 128 µg/mL (≈ 467 µM); MIC [37]: 32 µg/mL (≈ 117 µM) |

Reference: ChEMBL document CHEMBL5506059, “Cyanomethylquinolones as a New Class of Potential Multitargeting Broad-Spectrum Antibacterial Agents” (J Med Chem, 2024)
